Experimental data reported in article PMC2996262 (Journal of medicinal chemistry, 2010).

Tests used:
wild-type viruses = test: Antiviral assays, range over wild-type viruses; format: cell-based, HIV-1; conditions: Human immunodeficiency virus 1, read-out: EC50 against wild-type viruses
MDR viruses = test: Antiviral assays, range over MDR viruses; format: cell-based, HIV-1

| Compound | EC50 (wild-type viruses) [nM] | loss of potency against MDR viruses (MDR viruses; relative to wild-type viruses) | antiviral potency against the MDR HIV-1 variants, better than LPV (MDR viruses; compared with LPV) [fold] |
| --- | --- | --- | --- |
| CC(C)CN(C[C@@H](O)[C@H](Cc1ccccc1)NC(=O)[C@@H]1CN(c2ccccc2)C(=O)O1)S(=O)(=O)c1ccc2ncsc2c1 [15d] | 14 to 41 | about 6 fold |  |
| CC(=O)c1cccc(N2C[C@@H](C(=O)N[C@@H](Cc3ccccc3)[C@H](O)CN(CC(C)C)S(=O)(=O)c3ccc4ncsc4c3)OC2=O)c1 [26d] | 4.2 to 10.1 |  |  |
| CC(C)CN(C[C@@H](O)[C@H](Cc1ccccc1)NC(=O)[C@@H]1CN(c2cccc(S(C)(=O)=O)c2)C(=O)O1)S(=O)(=O)c1ccc2ncsc2c1 [27d] | 3.5 to 5.7 |  |  |
| COC(=O)Nc1cccc(N2C[C@@H](C(=O)N[C@@H](Cc3ccccc3)[C@H](O)CN(CC(C)C)S(=O)(=O)c3ccc4ncsc4c3)OC2=O)c1 [31d] | 1.2 to 3 |  | 3 |
